Source: PubChem BioAssay (NCI)
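The compound was tested at five concentrations on cells cultured in 96-well plates, with a 48-hour exposure period. TGI: total growth inhibition.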

Assays:
Test in all cases: growth of human tumour cells (NCI), 48 h
[1] = system: 786-0 renal
[2] = system: A498 renal
[3] = system: A549 NSCLC
[4] = system: ACHN renal
[5] = system: CAKI-1 renal
[6] = system: COLO 205 colon
[7] = system: DU-145 prostate
[8] = system: EKVX NSCLC
[9] = system: HCC-2998 colon
[10] = system: HCT-116 colon
[11] = system: HCT-15 colon
[12] = system: HOP-62 NSCLC
[13] = system: HOP-92 NSCLC
[14] = system: HS 578T breast
[15] = system: HT29 colon
[16] = system: IGROV1 ovarian
[17] = system: K-562 leukemia
[18] = system: KM12 colon
[19] = system: LOX IMVI melanoma
[20] = system: M14 melanoma
[21] = system: MALME-3M melanoma
[22] = system: MCF7 breast
[23] = system: MDA-MB-435
[24] = system: MDA-N
[25] = system: NCI-H23 lung
[26] = system: NCI-H460 lung
[27] = system: NCI-H522 lung
[28] = system: NCI/ADR-RES ovarian
[29] = system: OVCAR-3 ovarian
[30] = system: OVCAR-4 ovarian
[31] = system: OVCAR-5 ovarian
[32] = system: OVCAR-8 ovarian
[33] = system: PC-3 prostate
[34] = system: SF-268 CNS
[35] = system: SF-295 CNS
[36] = system: SF-539 CNS
[37] = system: SK-MEL-2 melanoma
[38] = system: SK-MEL-28 melanoma
[39] = system: SK-MEL-5 melanoma
[40] = system: SK-OV-3 ovarian
[41] = system: SN12C renal
[42] = system: SNB-19 CNS
[43] = system: SNB-75 CNS
[44] = system: SR leukemia
[45] = system: SW-620 colon
[46] = system: T-47D breast
[47] = system: TK-10 renal
[48] = system: U251 CNS
[49] = system: UACC-257 melanoma
[50] = system: UACC-62 melanoma
[51] = system: UO-31 renal
[52] = system: BT-549 breast
[53] = system: CCRF-CEM leukemia
[54] = system: MDA-MB-231 breast
[55] = system: MOLT-4 leukemia
[56] = system: NCI-H226 lung
[57] = system: RPMI-8226 leukemia
[58] = system: RXF 393 renal
[59] = system: HL-60(TB) leukemia

O=C(C#CP(=O)(O)c1ccccc1)c1ccccc1
TGI [1]: > 100 µM
TGI [2]: > 100 µM
TGI [3]: > 100 µM
TGI [4]: > 100 µM
TGI [5]: > 100 µM
TGI [6]: > 100 µM
TGI [7]: > 100 µM
TGI [8]: > 100 µM
TGI [9]: > 100 µM
TGI [10]: > 100 µM
TGI [11]: > 100 µM
TGI [12]: > 100 µM
TGI [13]: > 100 µM
TGI [14]: > 100 µM
TGI [15]: > 100 µM
TGI [16]: > 100 µM
TGI [17]: > 100 µM
TGI [18]: > 100 µM
TGI [19]: > 100 µM
TGI [20]: > 100 µM
TGI [21]: > 100 µM
TGI [22]: > 100 µM
TGI [23]: > 100 µM
TGI [24]: > 100 µM
TGI [25]: > 100 µM
TGI [26]: > 100 µM
TGI [27]: > 100 µM
TGI [28]: > 100 µM
TGI [29]: > 100 µM
TGI [30]: > 100 µM
TGI [31]: > 100 µM
TGI [32]: > 100 µM
TGI [33]: > 100 µM
TGI [34]: > 100 µM
TGI [35]: > 100 µM
TGI [36]: > 100 µM
TGI [37]: > 100 µM
TGI [38]: > 100 µM
TGI [39]: > 100 µM
TGI [40]: > 100 µM
TGI [41]: > 100 µM
TGI [42]: > 100 µM
TGI [43]: > 100 µM
TGI [44]: > 100 µM
TGI [45]: > 100 µM
TGI [46]: > 100 µM
TGI [47]: > 100 µM
TGI [48]: > 100 µM
TGI [49]: > 100 µM
TGI [50]: > 100 µM
TGI [51]: 4.14 µM

COc1cccc2c(NNc3ccccc3)c3ccc([N+](=O)[O-])cc3nc12
TGI [1]: 73.3 µM
TGI [2]: > 100 µM
TGI [3]: > 100 µM
TGI [4]: > 100 µM
TGI [52]: 71.4 µM
TGI [5]: > 100 µM
TGI [53]: > 100 µM
TGI [6]: > 100 µM
TGI [7]: > 100 µM
TGI [8]: > 100 µM
TGI [9]: > 100 µM
TGI [10]: > 100 µM
TGI [11]: > 100 µM
TGI [12]: > 100 µM
TGI [13]: > 100 µM
TGI [15]: > 100 µM
TGI [16]: > 100 µM
TGI [17]: > 100 µM
TGI [18]: 46.1 µM
TGI [19]: > 100 µM
TGI [20]: > 100 µM
TGI [21]: > 100 µM
TGI [22]: > 100 µM
TGI [54]: > 100 µM
TGI [23]: > 100 µM
TGI [24]: > 100 µM
TGI [55]: 5.84 µM
TGI [56]: > 100 µM
TGI [25]: > 100 µM
TGI [26]: > 100 µM
TGI [27]: > 100 µM
TGI [28]: > 100 µM
TGI [29]: > 100 µM
TGI [30]: > 100 µM
TGI [31]: > 100 µM
TGI [32]: > 100 µM
TGI [33]: > 100 µM
TGI [57]: > 100 µM
TGI [58]: > 100 µM
TGI [34]: > 100 µM
TGI [35]: > 100 µM
TGI [36]: > 100 µM
TGI [37]: > 100 µM
TGI [38]: > 100 µM
TGI [39]: > 100 µM
TGI [40]: > 100 µM
TGI [41]: > 100 µM
TGI [42]: > 100 µM
TGI [44]: 50.5 µM
TGI [45]: > 100 µM
TGI [46]: > 100 µM
TGI [47]: > 100 µM
TGI [48]: > 100 µM
TGI [49]: > 100 µM
TGI [50]: > 100 µM
TGI [51]: 61 µM

CC(C)OCC(O)COc1ccc2ccc(=O)oc2c1 (stereo not drawn)
TGI [1]: > 100 µM
TGI [3]: > 100 µM
TGI [4]: > 100 µM
TGI [5]: > 100 µM
TGI [53]: > 100 µM
TGI [6]: > 100 µM
TGI [7]: > 100 µM
TGI [8]: > 100 µM
TGI [9]: > 100 µM
TGI [10]: > 100 µM
TGI [11]: > 100 µM
TGI [59]: > 100 µM
TGI [12]: > 100 µM
TGI [13]: > 100 µM
TGI [14]: > 100 µM
TGI [15]: > 100 µM
TGI [16]: > 100 µM
TGI [17]: > 100 µM
TGI [18]: > 100 µM
TGI [19]: > 100 µM
TGI [20]: > 100 µM
TGI [21]: > 100 µM
TGI [22]: > 100 µM
TGI [54]: > 100 µM
TGI [23]: > 100 µM
TGI [24]: > 100 µM
TGI [55]: > 100 µM
TGI [25]: > 100 µM
TGI [26]: > 100 µM
TGI [27]: > 100 µM
TGI [28]: > 100 µM
TGI [29]: > 100 µM
TGI [30]: > 100 µM
TGI [31]: > 100 µM
TGI [32]: > 100 µM
TGI [33]: > 100 µM
TGI [57]: > 100 µM
TGI [34]: > 100 µM
TGI [35]: > 100 µM
TGI [38]: > 100 µM
TGI [39]: > 100 µM
TGI [40]: > 100 µM
TGI [41]: > 100 µM
TGI [42]: > 100 µM
TGI [43]: > 100 µM
TGI [45]: > 100 µM
TGI [46]: > 100 µM
TGI [47]: > 100 µM
TGI [48]: > 100 µM
TGI [49]: > 100 µM
TGI [50]: > 100 µM
TGI [51]: > 100 µM

COc1[nH]c(C(Cl)(Cl)Cl)c(Cl)c(=O)c1Cl
TGI [1]: > 100 µM
TGI [2]: > 100 µM
TGI [3]: > 100 µM
TGI [4]: > 100 µM
TGI [52]: > 100 µM
TGI [5]: > 100 µM
TGI [53]: > 100 µM
TGI [6]: > 100 µM
TGI [7]: > 100 µM
TGI [8]: > 100 µM
TGI [9]: > 100 µM
TGI [10]: > 100 µM
TGI [11]: > 100 µM
TGI [59]: > 100 µM
TGI [12]: > 100 µM
TGI [13]: > 100 µM
TGI [15]: > 100 µM
TGI [16]: > 100 µM
TGI [17]: > 100 µM
TGI [18]: > 100 µM
TGI [19]: > 100 µM
TGI [21]: > 100 µM
TGI [22]: > 100 µM
TGI [54]: > 100 µM
TGI [23]: > 100 µM
TGI [24]: > 100 µM
TGI [55]: > 100 µM
TGI [56]: > 100 µM
TGI [25]: > 100 µM
TGI [26]: > 100 µM
TGI [27]: > 100 µM
TGI [28]: > 100 µM
TGI [29]: > 100 µM
TGI [30]: > 100 µM
TGI [31]: > 100 µM
TGI [32]: > 100 µM
TGI [33]: > 100 µM
TGI [57]: > 100 µM
TGI [35]: > 100 µM
TGI [36]: > 100 µM
TGI [37]: > 100 µM
TGI [38]: > 100 µM
TGI [39]: > 100 µM
TGI [40]: > 100 µM
TGI [41]: > 100 µM
TGI [42]: > 100 µM
TGI [44]: > 100 µM
TGI [45]: > 100 µM
TGI [46]: > 100 µM
TGI [47]: > 100 µM
TGI [48]: > 100 µM
TGI [49]: > 100 µM
TGI [50]: > 100 µM
TGI [51]: > 100 µM
